# In US20090179638A1, “ASSAY FOR IDENTIFYING INHIBITORS OF NEURONAL APOPTOTIC PATHWAYS” (AEGERA THERAPEUTICS INC., priority 2006, published 2009):
# Tests used:
# [1] = tested on: HSP70; assay: HSP protein expression in PC12 / PC12rtTA cells (immunoblot); type: cell-based; conditions: for HSP70 production: PC12rtTA cells infected with AdNRG, Adp75 or AdLacZ, 30 hours (FIG. 6A)
# Method: FIGS. 4A-4C are photographs of Western blots which illustrate that compound 1 treatment of PC12 cells induces expression of HSP70. A: PC12 cells were infected with 5 MOI of AdNRG (NRG) or AdLacZ (LacZ) as indicated. Cells were left untreated (0) or treated with 40 μM compound 1 at time of infection (30), one hour before lysis (1), or at both times (30+1). Cells were lysed thirty hours after infection, normalized for protein content, and analyzed for levels of phospho-Ser^63 c-Jun and total c-Jun, total JNK, IkBα, and NRAGE by immunoblotting. Lysates from untreated cells are indicated by ‘−’. B: PC12 cells were treated with the indicated concentrations of compound 1 for 18 hours and then lysed, normalized for protein content, and analyzed for levels of HSP70 by immunoblotting. Lysates from untreated cells are indicated by ‘−’. C: RNA isolated from PC12^rtTA cells treated with increasing concentrations of compound 1 for 18 hours was analyzed by rtPCR using primers specific to HSP70, HSP25, HSP90 or actin, as indicated. Experiments in Panel A and B were performed three times and that in Panel C was performed twice, with essentially identical results. D: PC12^rtTA cells were infected with AdNRG at 5 MOI, Adp75 at 50 MOI, or the control virus AdLacZ at 50 MOI. At time of infection, the cells were treated with increasing concentrations of compound 1, or with vehicle alone, as indicated. Thirty hours after infection, cells were lysed, normalized for protein content, and analyzed for levels of c-Jun phosphorylation, HSP70, HSP25, HSP40, NRAGE, p75NTR, JNK-1 and IkBα, as indicated.
# FIGS. 6A, 6B and 6C are graphs and photographs of Western blots which illustrate that compound 1 analogues inhibit JNK activation and induce expression of HSP70. A: PC12^rtTA cells were infected with 5 MOI of AdNRG, 50 MOI of Adp75 or 50 MOI of the control virus AdLacZ. At time of infection, the cells were treated with an increasing concentrations of compound 1, or its analogues, compound 2, compound 3, compound 4, or with vehicle alone, as indicated. Thirty hours after infection, cells were lysed, normalized for protein levels, and analyzed for levels of HSP70, HSP25 and JNK-1, as indicated. B: PC12^rtTA cells were treated as above and after 40 hours infection were assayed for death using the lactate dehydrogenase (LDH) assay. Results are normalized relative to those obtained with 1% Triton, and represent the mean±standard deviation of a representative experiment performed in triplicate (*=P<0.025 relative to ‘0’ for each compound concentration). C: PC12^rtTA cells were infected with 50 MOI of LacZ or 5 MOI of AdNRG50 and at the time of infection, were treated with 40 μM compound 1, or its analogues, compound 2, compound 3, compound 4, or with vehicle alone, as indicated. Thirty hours after infection, cells were lysed, normalized for protein levels, and were analyzed for phosphorylated c-Jun, total c-Jun, NRAGE and JNK-1, as indicated. Experiments in Panel A and C were performed twice and that in B were performed twice, with essentially identical results.
# To address this, SCG neurons were treated with compound 1 for 18 hours then lysed and assessed for HSP70 levels by immunoblot. Uninfected PC12rtTA cells were treated in a similar manner. […] To test if the accumulation of HSP70 induced by compound 1 reflected increased steady state levels of its mRNA, RNA was isolated from PC12 cells treated with increasing concentrations of compound 1 for 18 hours and the cell lysates subjected to semi-quantitative rtPCR. […] HSP protein levels were also assessed in PC12rtTA cells infected with AdLacZ, Adp75, or AdNRG, and at the same time, exposed to compound 1.
# [2] = tested on: HSP90 protein; assay: STD 1H NMR spectroscopy binding to HSP90; conditions: compound to protein ratio approximately 100:1, 20 mM sodium phosphate buffer pH 6.7
# Method: (§1) FIG. 9 is a STD 1H NMR Spectrum of Compound 1 and 20 with HSP90 protein. STD NMR experiments were performed at 19° C. on a Varian INNOVA 500 MHz spectrometer equipped with a triple resonance HCN cold probe. A 1D saturation transfer difference pulse sequence with internal subtraction via phase cycling was employed. Residual HDO signal was removed using a W5 WATERGATE pulse sequence, with a […] interpulse delay. On resonance irradiation of the protein was performed at −0.5 ppm, with off-resonance irradiation at 34 ppm. The irradiation power was (g/2p)B1=93 Hz applied through a train of 50 ms eburp1 pulses with a 1 ms delay between the pulses. The total presaturation time was 5.1 s. The relaxation delay was set to 0.1 s. A 30 ms spin-lock pulse with a strength of (g/2p)B1=4600 Hz was used to eliminate background protein signals. The total number of scans was between 1536, with a sweep width of 16 ppm. Spectra were multiplied by a 1 Hz exponential line-broadening function prior to Fourier transform. Compounds 1 (85 uM) and 20 (85 uM) and HSP90 protein (0.85 uM) in 20 mM sodium phosphate buffer (pH 6.7) was used. A) STD 1H NMR spectrum, B) preset reference, and C) STD reference-no saturation/difference.
# as §1, with “STD” for “FIG. 9 is a STD 1H NMR Spectrum of Compound 1 and 20 with HSP90 protein. STD”, “employed (Mayer and Meyer, JACS, 2001, 123, 6108-6117).” for “employed.”, “delay (Liu et. al, J. Magn. Res., 1998, 132, 125).” for “delay.”, “1536-2048,” for “1536,”, “transform.” for “transform. Compounds 1 (85 uM) and 20 (85 uM) and HSP90 protein (0.85 uM) in 20 mM sodium phosphate buffer (pH 6.7) was used. A) STD 1H NMR spectrum, B) preset reference, and C) STD reference-no saturation/difference.”
# The compound to protein ratio was fixed at approximately 100:1 in 20 mM sodium phosphate buffer (pH 6.7). Compound 20 was used as a reference compound to compare binding affinities of various compounds to HSP90 by comparing the relative intensity of NOE effects in the spectra of compounds 1 and 20 (see FIG. 9), compounds 2 and 20, compounds 5 and 20, compounds 13 and 20, and compounds 15 and 20 (near equamolar quantities of each) in the presence of HSP90 protein. Using the NOE signals for the imidazole proton, and comparing peak heights, the relative kd of the compound pairs were compared (see Meyer and Peters, T. Angew. Chem. Int. Ed. 2003, 42, 864). The kds of the compound pairs ranged from 1:1 to 8:1. These differences in binding affinities correlated to the potency of each respective compound's ability to rescue SCG neurons from NGF withdrawal as previously reported.
# [3] = cells infected with LacZ or Adp75, increasing concentrations
SMILES,HSP70 production [1],binding to HSP90 protein by STD 1H NMR [2],HSP70 levels versus AdNRG alone ([1]; cells infected with AdNRG),"HSP40 protein level [1, 3]","HSP70 and HSP25 protein levels [1, 3]","cellular HSP70 levels ([1]; uninfected PC12rtTA cells, 18 hours)"
NS(=O)(=O)c1nn2cc(-c3ccc(N4CCOCC4)cc3)nc2s1 [Compound 2],robustly induced HSP70 production,directly bind,–,–,–,–
NS(=O)(=O)c1nn2cc(-c3ccccc3)nc2s1 [Compound 1],induced HSP70 production,directly bind,substantially higher,not HSP40,robust increase,large increase
